Data on two substances can be found in article PMC12214536 (Nature Communications, 2025).

For this assay, the system named is A. fumigatus OE::sltA. The format is cell-based, Aspergillus fumigatus.

For the substance colistin, the “more tolerance of the sltA overexpression strain compared to wild-type” value came out at 15%.
In the case of caspofungin, the “susceptibility of the sltA overexpression strain compared to wild-type” value is “comparable susceptibility to CAS”.
